# Assay results published in US10898421B2, “Anti-dandruff composition comprising pycnidione and epolone” (Croda International PLC, priority 2015, dated 2021).
# Read-outs that look alike come from different tables or passages of the source.
# How the values were obtained:
# [1] = system: Adult human epidermal keratinocytes (Heka); test: Cytotoxicity against keratinocyte cells (Alamar blue); format: cell-based; conditions: for Keratinocyte MIC: 24 hrs treatment
# Experimental: (§1) Adult human epidermal keratinocytes (Heka) isolated from skin (Invitrogen #C-005-5C) were grown and maintained in 15 mL of EPilife medium (Invitrogen #M-EPI-500) supplemented with HKGS growth supplements (Invitrogen #S-001-5) (0.2% v/v bovine pituitary extract (BPE), 5 μg/mL bovine insulin, 0.18 μg/mL hydrocortisone, 5 μg/mL bovine transferrin, 0.2 ng/mL human epidermal growth factor) and 50 μg/mL gentamicin (Sigma #G1397-10ML) in T75 cm2 cell culture flasks (VWR #CABD353136) and incubated at 37° C. in a humidified atmosphere of 5% CO2. Growth medium was refreshed every 2 days until the cells reached 50% confluency and then the medium was refreshed every 24 hours until 80% confluency was obtained.
# (§2) At 80% confluency, the cells were counted, diluted and plated into 96 well treated cell culture plates (VWR #29442-054) at a cell density of 10000 cells per well in 90 μL of respective growth medium. All media used for the assay were the same without the addition of antibiotics. The plates were incubated at 37° C. in a humidified atmosphere of 5% CO2 to allow cells to adhere to the plates for 24 hrs before treatment. DMSO was used as the vehicle at a final concentration of 1% in the wells.
# (§3) All compounds to be tested were resolublised in sterile DMSO (Sigma #D2438) and a dilution series was prepared for each cell line using the respective cell culture growth medium of which 10 μL were added to the respective assay plate well yielding eight final concentrations ranging from 128 μg/mL to 1 μg/mL per well (final well volume of 100 μL) and incubated at 37° C. in a humidified atmosphere of 5% CO2 for 24 hrs.
# (§4) All samples were tested in triplicate. Each plate contained eight un-inoculated positive controls (media+20% DMSO), eight untreated negative controls (Media+20% DMSO+cells). Alamar blue (Invitrogen #Dal1100) was added, 24 hrs after treatment, to each well at 10% of the culture volume (11 μL in 100 μL). Fluorescence was monitored using a BioTek Synergy HT plate reader at 530/25 excitation, 590/35 emission and 35 sensitivity at both time zero and 4 hrs after Alamar blue was added. After subtracting the time zero emission 590 nm measurement from the final reading the inferred percentage of microorganism survival relative to vehicle control wells were calculated and the IC50 was determined.
# [2] = as above; format: cell-based, human; conditions: human
# Experimental: as §1, §2, §3, §4
# [3] = system: Human foreskin BJ fibroblast cells (ATCC CRL-2522); test: Cytotoxicity against fibroblast cells (Alamar blue); format: cell-based; conditions: for Fibroblast MIC: 24 hrs treatment
# Experimental: (§5) Human foreskin BJ fibroblast cells (ATCC CRL-2522) were grown and maintained in 15 mL of Eagle's minimal essential medium (Sigma M5650) supplemented with 10% fetal bovine serum (VWR #CA95043-976) and 100 μU penicillin and 0.1 mg/mL streptomycin (VWR #CA12001-692) in T75 cm2 cell culture flasks (VWR #CABD353136) at 37° C. in a humidified atmosphere of 5% CO2. Culture medium was refreshed every two to three days and cells were not allowed to exceed 80% confluency.
# as §2, §3, §4
# [4] = as above; format: cell-based, human; conditions: human, 24 hrs treatment, Alamar blue, read-out: Fibroblast IC50
# Experimental: as §5, §2, §3, §4
# [5] = system: Malassezia furfur (ATCC #38593); test: Anti-fungal activity against Malassezia furfur (96 well broth assay, Alamar blue); format: cell-based; conditions: ATCC38593, 120 h; for IC50: read-out: M. furfur IC50; for MIC: visible growth
# Experimental: The terms Minimum Inhibitory Concentration and Half Maximal Inhibitory Concentration will be understood to have the following meanings. • Minimum Inhibitory Concentration (MIC) The minimum inhibitory concentration (MIC) will be understood to represent the lowest concentration of an anti-microbial that will inhibit the visible growth of a microorganism after overnight incubation. • Half Maximal Inhibitory Concentration (IC50) The half maximal inhibitory concentration (IC50) is a measure of the effectiveness of a substance in inhibiting a spec biological or biochemical function. This quantitative measure indicates how much of a particular drug or other substance (inhibitor) is needed to inhibit a given biological process (or component of a process, i.e. an enzyme, cell, cell receptor or microorganism) by half. IC50 represents the concentration of an active that is required for 50% inhibition in-vitro.
# Malassezia furfur (ATCC #38593) was cultured on Media C agar for 7 days at 37° C. Yeast colonies were then harvested into 0.9% saline sterile diH2O and diluted to approximately 1.5×10^6 CFU/mL using a 0.5 MacFarland standard (Fisher #R20410) to create an assay inoculum. Assay inoculum was added to sterile Media C broth to a final concentration of 4.5×10^4 CFU/mL. Assays were carried out in 96 well plates with a final well volume of 100 μL.
# Extract fractions and pure compounds were tested in triplicate against each organism. Extract fractions and pure compounds were re-suspended in sterile 20% DMSO.
# as §4, with “Each” for “All samples were tested in triplicate. Each”, “DMSO+organism), and one column containing a concentration range of a ketoconazole as a control antibiotic. The assay plate was incubated at 37° C. for 5 days after which growth within the wells were visualised and photographed with a UVP Biospectrum 500 imaging system.” for “DMSO+cells).”, “blue” for “blue (Invitrogen #Dal1100)”, “then added” for “added, 24 hrs after treatment,”, “hours” for “hrs”
# [6] = Stability of pycnidione formulated in off-the-shelf shampoo composition; format: physicochemical; conditions: J&J baby shampoo, after a two month period
# [7] = adult human epidermal keratinocytes (Heka), 24 hrs treatment, Alamar blue, read-out: Keratinocyte IC50
# [8] = human foreskin BJ fibroblast cells (ATCC CRL-2522)
# [9] = at 8 μg/ml, where inhibition of Malassezia yeasts is retained
SMILES,Keratinocyte MIC [1] [µg/mL],"CC50 at 24 h [2, 7] [µg/mL]",Fibroblast MIC [3] [µg/mL],"CC50 at 24 h [4, 8] [µg/mL]","IC50 ([5]; 37° C., 5 days, Alamar blue) [µg/mL]","MIC ([5]; 37° C., 5 days) [µg/mL]","cell line cytotoxicity at lower concentrations (keratinocyte) [1, 9]","CC50 at 24 h ([2]; text of b135, read-out: IC50, toxicity to keratinocyte cells) [µg/mL]","cell line cytotoxicity at lower concentrations (fibroblast) [3, 9]",CC50 at 24 h [4] [µg/mL],IC50 [5] [µg/mL],stability of shampoo composition [6]
"Cc1cc(=O)c(O)cc2c1C[C@H]1CC(C)(C)/C=C/C[C@@]3(C)Oc4cc(O)cc(C)c4C[C@@H]3C[C@H](O)[C@]1(C)O2 [Epolone A, epolone A]",32,13,32,14,48,64,–,–,–,–,–,–
"C/C1=C\CC(C)(C)/C=C/C[C@@]2(C)Oc3cc(O)c(=O)cc(C)c3C[C@@H]2C[C@H]1O [Epolone B, epolone B]",>128,50,>128,> 128,24,32,–,–,–,–,–,–
"Cc1cc(=O)c(O)cc2c1C[C@H]1CC(C)(C)/C=C/C[C@@]3(C)Oc4cc(O)c(=O)cc(C)c4C[C@@H]3C[C@H](O)[C@]1(C)O2 [Pycnidione, pycnidione]",64,–,64,–,–,8,no cell line cytotoxicity was observed,15,no cell line cytotoxicity was observed,11,6,remained stable
"[O-]n1ccccc1=S.[O-]n1ccccc1=S.[Zn+2] [zinc pyrithione, zinc salt of 1-hydroxy-2-pyridinethione, reference compound]",1,–,–,–,–,–,–,–,–,–,–,–
